Activity calls are given as the source filed them. The rule behind the calls is not given here.
Columns and labels:
[1] = Inhibition of JAK-mediated IL4-induced Stat5 phosphorylation in BALB/c mouse B cells by Phospho-Flow cytometry; format: cell-based
[2] = Inhibition of JAK-mediated IL6-induced Stat3 phosphorylation in BALB/c mouse CD11b-hi neutrophils by Phospho-Flow cytometry
B [3] = experiment: Inhibition of JAK-mediated IL4-induced Stat5 phosphorylation in BALB/c mouse B cells at 1 uM by Western blotting analysis; format: cell-based
[4] = Inhibition of JAK-mediated interferon-gamma-induced Stat1 phosphorylation in BALB/c mouse CD4+ T cells by Phospho-Flow cytometry; format: cell-based; conditions: T-cell
[5] = Inhibition of JAK-mediated IL4-induced Stat6 phosphorylation in BALB/c mouse B cells by Phospho-Flow cytometry; format: cell-based
[6] = Inhibition of JAK-mediated IL4-induced Stat5 phosphorylation in BALB/c mouse CD11b-int macrophages by Phospho-Flow cytometry
[7] = Inhibition of JAK-mediated IL4-induced Stat5 phosphorylation in BALB/c mouse CD11b-hi neutrophils by Phospho-Flow cytometry
[8] = Inhibition of JAK-mediated IL15-induced Stat5 phosphorylation in BALB/c mouse CD8+ T cells by Phospho-Flow cytometry; format: cell-based; conditions: T-cell
[9] = target: T1, Janus Kinase (JAK) (Homo sapiens) (UniProt P52333+P23458+O60674+P29597); experiment: Inhibition of JAK-mediated interferon-gamma-induced Stat1 phosphorylation in human U937 cells by Phospho-Flow cytometry at 20 uM; format: cell-based; conditions: U-937
[10] = Inhibition of JAK-mediated IL7-induced Stat5 phosphorylation in BALB/c mouse CD11b-int macrophages by Phospho-Flow cytometry
B [11] = experiment: Inhibition of JAK-mediated IL4-induced Stat6 phosphorylation in BALB/c mouse B cells at 10 uM by Western blotting analysis; format: cell-based
[12] = Inhibition of JAK-mediated IL7-induced Stat5 phosphorylation in BALB/c mouse CD4+ T cells by Phospho-Flow cytometry; format: cell-based; conditions: T-cell
MAP kinase p38 = MAP kinase p38 (Homo sapiens, UniProt O15264+Q15759+Q16539+P53778); experiment: Inhibition of anisomycin-induced p38 phosphorylation in human U937 cells by Phospho-Flow cytometry at 20 uM; format: cell-based; conditions: U-937
[13] = Inhibition of JAK-mediated IL4-induced Stat6 phosphorylation in BALB/c mouse CD11b-int macrophages by Phospho-Flow cytometry
[14] = Inhibition of JAK-mediated IL15-induced Stat5 phosphorylation in BALB/c mouse CD4+ T cells by Phospho-Flow cytometry; format: cell-based; conditions: T-cell
[15] = Inhibition of JAK-mediated IL6-induced Stat3 phosphorylation in BALB/c mouse B cells by Phospho-Flow cytometry; format: cell-based
[16] = Inhibition of JAK-mediated IL6-induced Stat1 phosphorylation in BALB/c mouse CD4+ T cells by Phospho-Flow cytometry; format: cell-based; conditions: T-cell
[17] = Inhibition of JAK-mediated IL6-induced Stat3 phosphorylation in BALB/c mouse CD4+ T cells by Phospho-Flow cytometry; format: cell-based; conditions: T-cell
[18] = Inhibition of JAK-mediated IL7-induced Stat5 phosphorylation in BALB/c mouse B cells by Phospho-Flow cytometry; format: cell-based
[19] = Inhibition of JAK-mediated IL6-induced Stat3 phosphorylation in BALB/c mouse CD11b-int macrophages by Phospho-Flow cytometry
[20] = Inhibition of JAK-mediated IL6-induced Stat3 phosphorylation in BALB/c mouse CD8+ T cells by Phospho-Flow cytometry; format: cell-based; conditions: T-cell
[21] = Inhibition of JAK-mediated IL10-induced Stat3 phosphorylation in BALB/c mouse CD11b-int macrophages by Phospho-Flow cytometry
[22] = Inhibition of JAK-mediated IL7-induced Stat5 phosphorylation in BALB/c mouse CD8+ T cells by Phospho-Flow cytometry; format: cell-based; conditions: T-cell
[23] = Inhibition of JAK-mediated interferon-gamma-induced Stat1 phosphorylation in BALB/c mouse B cells by Phospho-Flow cytometry; format: cell-based
B [24] = experiment: Inhibition of JAK-mediated IL10-induced Stat3 phosphorylation in BALB/c mouse B cells at 1 uM by Western blotting analysis; format: cell-based
[25] = Inhibition of JAK-mediated IL6-induced Stat1 phosphorylation in BALB/c mouse B cells by Phospho-Flow cytometry; format: cell-based
[26] = Inhibition of JAK-mediated IL15-induced Stat5 phosphorylation in BALB/c mouse B cells by Phospho-Flow cytometry; format: cell-based
[27] = Inhibition of JAK-mediated IL10-induced Stat3 phosphorylation in BALB/c mouse B cells by Phospho-Flow cytometry; format: cell-based
[28] = Inhibition of JAK-mediated IL15-induced Stat5 phosphorylation in BALB/c mouse CD11b-hi neutrophils by Phospho-Flow cytometry
[29] = Inhibition of JAK-mediated IL6-induced Stat1 phosphorylation in BALB/c mouse CD8+ T cells by Phospho-Flow cytometry; format: cell-based; conditions: T-cell
[30] = Inhibition of JAK-mediated IL10-induced Stat3 phosphorylation in BALB/c mouse CD4+ T cells by Phospho-Flow cytometry; format: cell-based; conditions: T-cell
[31] = Inhibition of JAK-mediated IL4-induced Stat6 phosphorylation in BALB/c mouse CD4+ T cells by Phospho-Flow cytometry; format: cell-based; conditions: T-cell
[32] = Inhibition of JAK-mediated IL10-induced Stat3 phosphorylation in BALB/c mouse CD11b-hi neutrophils by Phospho-Flow cytometry
[33] = Inhibition of JAK-mediated IL6-induced Stat1 phosphorylation in BALB/c mouse CD11b-int macrophages by Phospho-Flow cytometry
[34] = Inhibition of JAK-mediated IL4-induced Stat5 phosphorylation in BALB/c mouse CD8+ T cells by Phospho-Flow cytometry; format: cell-based; conditions: T-cell
[35] = Inhibition of JAK-mediated IL15-induced Stat5 phosphorylation in BALB/c mouse CD11b-int macrophages by Phospho-Flow cytometry
[36] = Inhibition of JAK-mediated interferon-gamma-induced Stat1 phosphorylation in BALB/c mouse CD11b-int macrophages by Phospho-Flow cytometry
[37] = target: T1, Janus Kinase (JAK) (Homo sapiens); experiment: Inhibition of JAK-mediated GM-CSF-induced Stat5 phosphorylation in human U937 cells by Phospho-Flow cytometry at 20 uM; format: cell-based; conditions: U-937
[38] = Inhibition of JAK-mediated IL7-induced Stat5 phosphorylation in BALB/c mouse CD11b-hi neutrophils by Phospho-Flow cytometry
Mus musculus [39] = species on record: Mus musculus; experiment: Inhibition of JAK-mediated IL4-induced Stat6 phosphorylation in BALB/c mouse CD8+ Tcells by Phospho-Flow cytometry
[40] = Inhibition of JAK-mediated IL6-induced Stat1 phosphorylation in BALB/c mouse CD11b-hi neutrophils by Phospho-Flow cytometry
[41] = Inhibition of JAK-mediated interferon-gamma-induced Stat1 phosphorylation in BALB/c mouse CD11b-hi neutrophils by Phospho-Flow cytometry
[42] = Inhibition of JAK-mediated IL4-induced Stat5 phosphorylation in BALB/c mouse CD4+ T cells by Phospho-Flow cytometry; format: cell-based; conditions: T-cell
[43] = Inhibition of JAK-mediated IL10-induced Stat3 phosphorylation in BALB/c mouse CD8+ T cells by Phospho-Flow cytometry; format: cell-based; conditions: T-cell
Mus musculus [44] = species on record: Mus musculus; experiment: Inhibition of JAK-mediated IL4-induced Stat6 phosphorylation in BALB/c mouse CD11b-hi neutrophils by Phospho-Flow cytometry
[45] = Inhibition of JAK-mediated IL4-induced Stat6 phosphorylation in BALB/c mouse CD8+ T cells by Phospho-Flow cytometry; format: cell-based; conditions: T-cell
Mus musculus [46] = experiment: In vivo inhibition of JAK-mediated IL4-induced Stat6 phosphorylation in spleen cells in BALB/c mouse at 1 to 10 mg/kg, iv administered 30 mins before IL challenge for 15 mins; format: functional, organism-based
Mus musculus [47] = experiment: In vivo inhibition of JAK-mediated IL6-induced Stat3 phosphorylation in spleen cells in BALB/c mouse at 1 to 10 mg/kg, iv administered 30 mins before IL challenge for 15 mins; format: functional, organism-based
B [48] = experiment: Inhibition of JAK-mediated interferon-gamma-induced Stat1 phosphorylation in BALB/c mouse B cells at 3.5 uM by Phospho-Flow cytometry; format: cell-based
T-cell = experiment: Inhibition of JAK-mediated interferon-gamma-induced Stat1 phosphorylation in BALB/c mouse CD4+ T cells at 100 uM by Phospho-Flow cytometry; format: cell-based
Mus musculus [49] = experiment: In vivo inhibition of JAK-mediated IL6-induced Stat3 phosphorylation in blood cells in BALB/c mouse at 1 to 10 mg/kg, iv administered 30 mins before IL challenge for 15 mins; format: functional, organism-based
Mus musculus [50] = experiment: In vivo inhibition of JAK-mediated IL4-induced Stat6 phosphorylation in blood cells in BALB/c mouse at 1 to 10 mg/kg, iv administered 30 mins before IL challenge for 15 mins; format: functional, organism-based

C=C1C(=O)O[C@H]2C[C@@H]1[C@@H](OC(C)=O)C/C(C)=C/CC/C(C)=C\CC[C@@]2(C)O [CRASSIN]
IC50 [1]: 1 µM
IC50 [2]: < 20 µM
inhibition (B [3]): Active
IC50 [4]: < 20 µM
IC50 [5]: 16 µM
IC50 [6]: < 20 µM
IC50 [7]: < 20 µM
IC50 [8]: < 20 µM
inhibition [9]: 25%
IC50 [10]: < 20 µM
inhibition (B [11]): Active
IC50 [12]: < 20 µM
inhibition (MAP kinase p38): 25%
IC50 [13]: < 20 µM
IC50 [14]: < 20 µM
IC50 [15]: < 20 µM
IC50 [16]: < 20 µM
IC50 [17]: < 20 µM
IC50 [18]: < 20 µM
IC50 [19]: < 20 µM
IC50 [20]: < 20 µM
IC50 [21]: < 20 µM
IC50 [22]: < 20 µM
IC50 [23]: < 20 µM
inhibition (B [24]): Active
IC50 [25]: < 20 µM
IC50 [26]: < 20 µM
IC50 [27]: 1 µM
IC50 [28]: < 20 µM
IC50 [29]: < 20 µM
IC50 [30]: < 20 µM
IC50 [31]: < 20 µM
IC50 [32]: < 20 µM
IC50 [33]: < 20 µM
IC50 [34]: < 20 µM
IC50 [35]: < 20 µM
IC50 [36]: < 20 µM
inhibition [37]: Active
IC50 [38]: < 20 µM
inhibition (Mus musculus [39]): Dose-dependent effect
IC50 [40]: < 20 µM
IC50 [41]: < 20 µM
IC50 [42]: < 20 µM
IC50 [43]: < 20 µM
inhibition (Mus musculus [44]): Dose-dependent effect
IC50 [45]: < 20 µM

COC1=C(N)C(=O)c2nc(-c3nc(C(=O)O)c(C)c(-c4ccc(OC)c(OC)c4O)c3N)ccc2C1=O [STREPTONIGRIN]
IC50 [1]: < 20 µM
IC50 [2]: < 20 µM
IC50 [4]: < 20 µM
IC50 [6]: < 20 µM
IC50 [7]: < 20 µM
IC50 [8]: < 20 µM
inhibition [9]: > 65%
IC50 [10]: < 20 µM
IC50 [12]: < 20 µM
inhibition (Mus musculus [46]): Active
inhibition (MAP kinase p38): 25%
IC50 [13]: < 20 µM
IC50 [14]: < 20 µM
IC50 [15]: < 20 µM
IC50 [16]: < 20 µM
IC50 [17]: < 20 µM
IC50 [18]: < 20 µM
IC50 [19]: < 20 µM
IC50 [20]: < 20 µM
IC50 [21]: < 20 µM
IC50 [22]: < 20 µM
inhibition (Mus musculus [47]): Active
IC50 [23]: < 20 µM
IC50 [25]: < 20 µM
IC50 [26]: < 20 µM
IC50 [27]: < 20 µM
IC50 [28]: < 20 µM
IC50 [29]: < 20 µM
IC50 [30]: < 20 µM
inhibition (B [48]): Active
IC50 [31]: < 20 µM
IC50 [32]: < 20 µM
IC50 [33]: < 20 µM
IC50 [34]: < 20 µM
IC50 [35]: < 20 µM
IC50 [36]: < 20 µM
inhibition [37]: 25%
IC50 [38]: < 20 µM
IC50 [40]: < 20 µM
inhibition (T-cell): < 50%
IC50 [41]: < 20 µM
inhibition (Mus musculus [49]): Active
inhibition (Mus musculus [50]): Active
IC50 [42]: < 20 µM
IC50 [43]: < 20 µM
IC50 [45]: < 20 µM

— ChEMBL document CHEMBL1212697, “High-content single-cell drug screening with phosphospecific flow cytometry” (Nat Chem Biol, 2008)
